pKd: −log10 of the molar value. *1 amine or outer side, *2 acyl side, *3 side chain or, on linkers, in order; H or OH if unused. Where a SMILES comes first, the peptide text is derived from it. Bridges are numbered along the chain shown (N, C = ends). [ ]: non-standard residue; d: D form. TATA = O=C(CC[*:1])N1CN(C(=O)CC[*:2])CN(C(=O)CC[*:3])C1; Dap = NC[C@H](N)C(=O)O

What is called pKd is the Kd on a negative log10 scale, so that one unit is a factor of ten.

In the assay the target is TSLP (Homo sapiens, UniProt Q969D9). As to the kind of experiment: Human TSLP Surface Plasmon Resonance (SPR) binding assay. Also on record: The resulting construct spCD33-6×HN-TEV-hTSLP(29-159)-Avi; 6xHN tag with TEV site (N, cleaved yes); made in house; host or cells: Expi293F cells. Particulars: biotinylated human TSLP immobilized on streptavidin chip; 20° C.; steady-state or kinetic 1:1 fit; read-out: hTSLP SPR Kd.
Chain of TSLP (Q969D9 29-159): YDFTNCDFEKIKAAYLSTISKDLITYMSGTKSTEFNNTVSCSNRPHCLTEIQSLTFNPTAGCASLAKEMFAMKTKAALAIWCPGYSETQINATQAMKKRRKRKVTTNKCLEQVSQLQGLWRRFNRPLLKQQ
`CC(C)C[C@@H]1NC(=O)[C@H](Cc2c[nH]c3ccccc23)NC(=O)[C@H](CCC(N)=O)NC(=O)[C@@H](N)CSCCC(=O)N2CN3CN(C2)C(=O)CCSC[C@H](NC(=O)[C@H](CC(=O)O)NC(=O)[C@H](CCC(=O)O)NC1=O)C(=O)N[C@@H](Cc1c[nH]c2ccccc12)C(=O)N[C@@H](CCCNC(=N)N)C(=O)NCC(=O)N[C@@H](Cc1ccccc1)C(=O)N[C@H](C(=O)N[C@@H](CC(=O)O)C(=O)N[C@H](C(=O)N[C@@H](CO)C(=O)N[C@H](C(=O)N[C@@H](Cc1c[nH]cn1)C(=O)N[C@@H](CO)C(N)=O)[C@@H](C)O)[C@@H](C)O)CSCCC3=O` [Example 128, (SEQ ID NO: 38)-DTSTHS] (H-CQWLEDCWRGFCDTSTHS-NH2; linker 1-7-12 via TATA): the negative logarithm of the Kd (pKd) was 6.42.

With `CC(=O)N[C@H]1CSCCC(=O)N2CN3CN(C2)C(=O)CCSC[C@H](NC(=O)[C@H](CC(=O)O)NC(=O)[C@H](CCC(=O)O)NC(=O)[C@H](CC(C)C)NC(=O)[C@H](Cc2c[nH]c4ccccc24)NC(=O)[C@H](CCC(N)=O)NC1=O)C(=O)N[C@@H](Cc1c[nH]c2ccccc12)C(=O)N[C@@H](CCONC(=N)N)C(=O)NCC(=O)N[C@@H](Cc1ccccc1)C(=O)N[C@H](C(N)=O)CSCCC3=O` [Example 131, Ac-(SEQ ID NO: 92)], the negative-log Kd (pKd) is 6.40.

For the molecule `CC(=O)N[C@H]1CSCCC(=O)N2CN3CN(C2)C(=O)CCSC[C@H](NC(=O)[C@H](CC(=O)O)NC(=O)[C@H](CCC(=O)O)NC(=O)[C@H](CC(C)C)NC(=O)[C@H](Cc2c[nH]c4ccccc24)NC(=O)[C@H](CCC(N)=O)NC1=O)C(=O)N[C@@H](Cc1c[nH]c2ccccc12)C(=O)N[C@@H](CCCNC(=N)N)C(=O)NCC(=O)N[C@@H](Cc1cccs1)C(=O)N[C@H](C(N)=O)CSCCC3=O` [Example 135, Ac-(SEQ ID NO: 96)], the pKd was 6.31.

For the molecule `CC(C)C[C@@H]1NC(=O)[C@H](Cc2c[nH]c3ccccc23)NC(=O)[C@H](CC(=O)O)NC(=O)[C@@H](NC(=O)[C@H](C)N)CSCCC(=O)N2CN3CN(C2)C(=O)CCSC[C@H](NC(=O)[C@H](CC(=O)O)NC(=O)[C@H](CC(=O)O)NC1=O)C(=O)N[C@@H](Cc1c[nH]c2ccccc12)C(=O)N[C@@H](CCCCN)C(=O)NCC(=O)N[C@@H](Cc1ccccc1)C(=O)N[C@H](C(=O)N[C@@H](C)C(N)=O)CSCCC3=O` [Example 141, A-(SEQ ID NO: 100)-A] (H-ACDWLDDCWKGFCA-NH2; linker 2-8-13 via TATA; N-terminus and C-terminus assumed), the negative-log Kd (pKd) was 6.22.

In the case of `COc1ccc(C[C@@H]2NC(=O)CNC(=O)[C@H](CCCNC(=N)N)NC(=O)[C@H](Cc3c[nH]c4ccccc34)NC(=O)[C@@H]3CSCCC(=O)N4CN(CN(C4)C(=O)CCSC[C@H](NC(C)=O)C(=O)N[C@@H](CCC(N)=O)C(=O)N[C@@H](Cc4c[nH]c5ccccc45)C(=O)N[C@@H](CC(C)C)C(=O)N[C@@H](CCC(=O)O)C(=O)N[C@@H](CC(=O)O)C(=O)N3)C(=O)CCSC[C@@H](C(N)=O)NC2=O)cc1` [Example 142, Ac-(SEQ ID NO: 101)], the pKd is 6.15.

With `CC(=O)N[C@H]1CSCCC(=O)N2CN3CN(C2)C(=O)CCSC[C@H](NC(=O)[C@H](CC(=O)O)NC(=O)[C@H](CCC(=O)O)NC(=O)[C@H](CC(C)C)NC(=O)[C@H](Cc2c[nH]c4ccccc24)NC(=O)[C@H](CCC(N)=O)NC1=O)C(=O)N[C@@H](Cc1c[nH]c2ccccc12)C(=O)N[C@@H](CCCNC(=N)N)C(=O)NCC(=O)N[C@@H](Cc1cccc(Br)c1)C(=O)N[C@H](C(N)=O)CSCCC3=O` [Example 143, Ac-(SEQ ID NO: 102)], the pKd was 6.12.

For the molecule `CC(=O)N[C@H]1CSCCC(=O)N2CN3CN(C2)C(=O)CCSC[C@H](NC(=O)[C@H](CC(=O)O)NC(=O)[C@H](CCC(=O)O)NC(=O)[C@H](CC(C)C)NC(=O)[C@H](Cc2c[nH]c4ccccc24)NC(=O)[C@H](CCC(N)=O)NC1=O)C(=O)N[C@@H](Cc1c[nH]c2ccccc12)C(=O)N[C@@H](CCCNC(=N)N)C(=O)NCC(=O)N[C@@H](Cc1ccccn1)C(=O)N[C@H](C(N)=O)CSCCC3=O` [Example 146, Ac-(SEQ ID NO: 105)], the negative logarithm of the Kd (pKd) was 6.04.

For `CC(=O)N[C@H]1CSCCC(=O)N2CN3CN(C2)C(=O)CCSC[C@H](NC(=O)[C@H](CC(=O)O)NC(=O)[C@H](CCC(=O)O)NC(=O)[C@H](CC[S+](C)[O-])NC(=O)[C@H](Cc2c[nH]c4ccccc24)NC(=O)[C@H](CCC(N)=O)NC1=O)C(=O)N[C@@H](Cc1c[nH]c2ccccc12)C(=O)N[C@@H](CCCNC(=N)N)C(=O)NCC(=O)N[C@@H](Cc1ccccc1)C(=O)N[C@H](C(N)=O)CSCCC3=O` (stereo partly drawn) [Example 147, Ac-(SEQ ID NO: 106)], the negative logarithm of the Kd (pKd) was 6.03.

For the molecule `CC(=O)N[C@H]1CSCCC(=O)N2CN3CN(C2)C(=O)CCSC[C@H](NC(=O)[C@H](CC(=O)O)NC(=O)[C@H](CCC(=O)O)NC(=O)[C@H](CC(C)C)NC(=O)[C@H](Cc2c[nH]c4ccccc24)NC(=O)[C@H](CCC(N)=O)NC1=O)C(=O)N[C@@H](Cc1c[nH]c2ccccc12)C(=O)N[C@@H](CCCNC(=N)N)C(=O)NCC(=O)N[C@@H](CCc1ccccc1)C(=O)N[C@H](C(N)=O)CSCCC3=O` [Example 148, Ac-(SEQ ID NO: 107)], the pKd was 5.96.

For `CC(=O)N[C@H]1CSCCC(=O)N2CN3CN(C2)C(=O)CCSC[C@H](NC(=O)[C@H](CC(=O)O)NC(=O)[C@H](CCC(=O)O)NC(=O)[C@H](CC(C)C)NC(=O)[C@H](Cc2c[nH]c4ccccc24)NC(=O)[C@H](CCC(N)=O)NC1=O)C(=O)N[C@@H](Cc1c[nH]c2ccccc12)C(=O)N[C@@H](C)C(=O)NCC(=O)N[C@@H](Cc1ccccc1)C(=O)N[C@H](C(N)=O)CSCCC3=O` [Example 149, Ac-(SEQ ID NO: 108)], the negative logarithm of the Kd (pKd) was 5.96.

Regarding `CC[C@H](C)[C@@H]1NC(=O)[C@H]([C@@H](C)O)NC(=O)[C@@H](NC(=O)[C@H](C)N)CSCCC(=O)N2CN3CN(C2)C(=O)CCSC[C@H](NC(=O)[C@H](CC(=O)O)NC(=O)[C@H](CCC(=O)O)NC(=O)[C@H](CC(C)C)NC1=O)C(=O)N[C@@H](Cc1c[nH]c2ccccc12)C(=O)N[C@@H](CCSC)C(=O)NCC(=O)N[C@@H](Cc1ccccc1)C(=O)N[C@H](C(=O)N[C@@H](C)C(N)=O)CSCCC3=O` [Example 150, A-(SEQ ID NO: 109)-A], the pKd is 5.82.

`CC(=O)N[C@H]1CSCCC(=O)N2CN3CN(C2)C(=O)CCSC[C@H](NC(=O)[C@H](CC(=O)O)NC(=O)[C@H](CCC(=O)O)NC(=O)[C@H](CC(C)C)NC(=O)[C@H](Cc2c[nH]c4ccccc24)NC(=O)[C@H](CCC(N)=O)NC1=O)C(=O)N[C@@H](Cc1c[nH]c2ccccc12)C(=O)N[C@@H](CCCNC(=N)N)C(=O)NCC(=O)N[C@@H](Cc1c(F)c(F)c(F)c(F)c1F)C(=O)N[C@H](C(N)=O)CSCCC3=O` [Example 153, Ac-(SEQ ID NO: 112)]: the negative logarithm of the Kd (pKd) was 5.57.

Consider `CC(=O)N[C@H]1CSCCC(=O)N2CN3CN(C2)C(=O)CCSC[C@H](NC(=O)[C@H](CC(=O)O)NC(=O)[C@H](CCC(=O)O)NC(=O)[C@H](CC(C)C)NC(=O)[C@H](Cc2c[nH]c4ccccc24)NC(=O)[C@H](CCC(N)=O)NC1=O)C(=O)N[C@@H](Cc1c[nH]c2ccccc12)C(=O)N[C@@H](CN)C(=O)NCC(=O)N[C@@H](Cc1ccccc1)C(=O)N[C@H](C(N)=O)CSCCC3=O` [Example 155, Ac-(SEQ ID NO: 114)], for which the negative logarithm of the Kd (pKd) was 5.49.

For `CC(C)C[C@@H]1NC(=O)[C@H](Cc2c[nH]c3ccccc23)NC(=O)[C@H](CCC(N)=O)NC(=O)[C@@H](N)CSCCC(=O)N2CN3CN(C2)C(=O)CCSC[C@H](NC(=O)[C@H](CC(=O)O)NC(=O)[C@H](CCC(=O)O)NC1=O)C(=O)N[C@@H](Cc1c[nH]c2ccccc12)C(=O)N[C@@H](CN)C(=O)NCC(=O)N[C@@H](Cc1ccccc1)C(=O)N[C@H](C(N)=O)CSCCC3=O` [Example 156, (SEQ ID NO: 114)], the negative-log Kd (pKd) is 5.48.

Turning to `CC(=O)N[C@H]1CSCCC(=O)N2CN3CN(C2)C(=O)CCSC[C@H](NC(=O)[C@H](CC(=O)O)NC(=O)[C@H](CCC(=O)O)NC(=O)[C@H](CC(C)C)NC(=O)[C@H](Cc2c[nH]c4ccccc24)NC(=O)[C@H](CCC(N)=O)NC1=O)C(=O)N[C@@H](Cc1c[nH]c2ccccc12)C(=O)N[C@@H](CCCNC(=N)N)C(=O)NCC(=O)N[C@@H](Cc1ccncc1)C(=O)N[C@H](C(N)=O)CSCCC3=O` [Example 157, Ac-(SEQ ID NO: 115)], the pKd is 5.41.

In the case of `CC(=O)N[C@H]1CSCCC(=O)N2CN3CN(C2)C(=O)CCSC[C@H](NC(=O)[C@H](CC(=O)O)NC(=O)[C@H](CCC(=O)O)NC(=O)[C@H](CC(C)C)NC(=O)[C@H](Cc2c[nH]c4ccccc24)NC(=O)[C@H](CCC(N)=O)NC1=O)C(=O)N[C@@H](Cc1c[nH]c2ccccc12)C(=O)N[C@@H](CCCNC(=N)N)C(=O)NCC(=O)N[C@@H](Cc1cccnc1)C(=O)N[C@H](C(N)=O)CSCCC3=O` [Example 158, Ac-(SEQ ID NO: 116)], the pKd was 5.27.

On to `CC(=O)N[C@H]1CSCCC(=O)N2CN3CN(C2)C(=O)CCSC[C@H](NC(=O)[C@H](CC(N)=O)NC(=O)[C@H](CCC(=O)O)NC(=O)[C@H](CC(C)C)NC(=O)[C@H](Cc2c[nH]c4ccccc24)NC(=O)[C@H](Cc2c[nH]cn2)NC1=O)C(=O)N[C@@H](Cc1c[nH]c2ccccc12)C(=O)N[C@@H](CN)C(=O)NCC(=O)N[C@@H](Cc1ccccc1)C(=O)N[C@H](C(N)=O)CSCCC3=O` [Example 159, Ac-(SEQ ID NO: 117)] (Ac-CHWLENCW[Dap]GFC-NH2; linker 1-7-12 via TATA; C-terminus assumed), for which the negative logarithm of the Kd (pKd) was 5.25.

Consider `CC(C)C[C@@H]1NC(=O)[C@H](CO)NC(=O)[C@H](CCC(=O)O)NC(=O)[C@@H](NC(=O)[C@H](C)N)CSCCC(=O)N2CN3CN(C2)C(=O)CCSC[C@H](NC(=O)[C@H](CO)NC(=O)[C@H](Cc2c[nH]c4ccccc24)NC(=O)[C@@H]2CCCN2C(=O)[C@H](CC(=O)O)NC1=O)C(=O)N1CCC[C@H]1C(=O)N[C@@H](C(C)C)C(=O)N[C@@H](Cc1c[nH]c2ccccc12)C(=O)N[C@@H](Cc1c[nH]c2ccccc12)C(=O)N[C@@H](CCCNC(=N)N)C(=O)N[C@H](C(=O)N[C@@H](C)C(N)=O)CSCCC3=O` [Example 161, A-(SEQ ID NO: 119)-A] (H-ACESLDPWSCPVWWRCA-NH2; linker 2-10-16 via TATA; N-terminus and C-terminus assumed), for which the pKd was 6.05.

The values above are taken from US11866518B2, “Bicyclic peptide ligands specific for TSLP” (BicycleTx Limited, priority 2020, dated 2024).
